# Like-named read-outs stand apart in the source and are kept apart here. Marks after values point to notes of the source that are not given here.
# How the values were obtained:
# [1] = test system: tail flick latency to radiant heat in mice; conditions: for % MPE at hour (h) / Tail flick latency(s) at hour (h): mean ± S.E.M., N = 6
# Method: (§1) Male Swiss mice (18-22 g) were selected for the study comprising 6 animals in each group. The dose volume was 0.1 ml/10 g body weight of mice and the route of administration was per oral (p.o.). Two tests were performed for the purpose. […] One hour later, a 1% acetic acid solution (10 ml/kg, i.p.) was used to produce writhing in mice. The numbers of writhes {constriction of abdomen, turning of trunk (twist), and extension of hind limbs} due to acetic acid were expressed as painful response. The numbers of writhes per animal were counted during a 20-minute session, beginning 3 minutes after the acetic acid injection. In second test i.e. Tail flick test, the mouse tail was placed on the radiant heat produced by the tail flick apparatus and the individual animal tail flick response was noted (a trail of three was carried out). Animals having a latency to tail withdrawal from the radiant heat source (3-5 s) were selected for the study. […] 1, 2, 4, 5 hours later, the tail flick latency were noted and the change in latency and % maximum protective effect (% MPE) was calculated. A cut off time of 10 seconds was used to prevent any injury to the tail. The changes in tail flick latency and the number of writhes are expressed as mean±S.E.M. The treatment values were compared with the control values for a particular hour using One-Way Analysis of Variance followed by Dunnett's or Bonferroni's multiple comparison test. Values of p<0.05 were considered as statistically significant.
# [2] = test system: 1% acetic acid induced writhing in mice; conditions: for No. of writhes: 20-minute session, mean ± S.E.M., N = 6
# Method: as §1
# [3] = cited from earlier work
# [4] = test system: carrageenan induced paw edema in Wistar rats; conditions: for Change in volume (ml) at hour (h): mean ± S.E.M., n = 6
# Method: Male Wistar rats (180-250 g) were selected for the study comprising 6 animals in each group for the duration of study of 1 day. The vehicle used was (0.5% CMC in 0.1% Tween®80) and the route of administration was peroral (p.o.). […] One hour later 0.1 ml of 1% carrageenan was administered s.c. to the right hind paw of the rat. The degree of inflammation was measured by using digital plethosmometer (Cat. No. 7140, Ugo Basile, Italy) at 0 (initial), 0.5, 1, 2, 3 and 5 hours (h) post carrageenan injection and the values were recorded. For each hour, at least 2-3 values of the dipped paw were obtained and later averaged. The increase in the paw volume (ml) was calculated by subtracting the values obtained at the n^th from the 0 hour and percentage of activity was also calculated. The changes in paw edema (ml) values were expressed as mean±S.E.M. The treatment values were compared with the control values for a particular hour using One-Way Analysis of Variance followed by Dunnett's multiple comparison test. Values of p<0.05 were considered as statistically significant.
smiles,measurement,setting,value
"CS(=O)(=O)Nc1ccc([N+](=O)[O-])cc1Oc1ccccc1 [Nimesulide, 4-nitro-2-phenoxymethane-sulfonanilide]",% MPE at hour (h),"[1]; 0.1 mg/kg p.o., 1 h",137.0 ± 37.1 %
same,Tail flick latency(s) at hour (h),"[1]; 0.1 mg/kg p.o., 1 h",3.00 ± 0.58 s
same,% MPE at hour (h),"[1]; 0.1 mg/kg p.o., 2 h",251.0 ± 59.9 %
same,Tail flick latency(s) at hour (h),"[1]; 0.1 mg/kg p.o., 2 h",5.50 ± 0.18 s
same,% MPE at hour (h),"[1]; 0.1 mg/kg p.o., 3 h",279.0 ± 49.4 %
same,Tail flick latency(s) at hour (h),"[1]; 0.1 mg/kg p.o., 3 h",6.17 ± 0.33 s
same,% MPE at hour (h),"[1]; 0.1 mg/kg p.o., 5 h",28.0 ± 6.1 %
same,Tail flick latency(s) at hour (h),"[1]; 0.1 mg/kg p.o., 5 h",1.42 ± 0.35 s
same,% MPE at hour (h),"[1]; 0.3 mg/kg p.o., 1 h",114.0 ± 16.8 %
same,Tail flick latency(s) at hour (h),"[1]; 0.3 mg/kg p.o., 1 h",3.17 ± 0.51 s
same,% MPE at hour (h),"[1]; 0.3 mg/kg p.o., 2 h",193.0 ± 9.5 %
same,Tail flick latency(s) at hour (h),"[1]; 0.3 mg/kg p.o., 2 h",5.33 ± 0.38 s
same,% MPE at hour (h),"[1]; 0.3 mg/kg p.o., 3 h",209.0 ± 4.3 %
same,Tail flick latency(s) at hour (h),"[1]; 0.3 mg/kg p.o., 3 h",5.75 ± 0.21 s
same,% MPE at hour (h),"[1]; 0.3 mg/kg p.o., 5 h",54.0 ± 6.6 %
same,Tail flick latency(s) at hour (h),"[1]; 0.3 mg/kg p.o., 5 h",3.08 ± 0.27 s
same,% MPE at hour (h),"[1]; 1.0 mg/kg p.o., 1 h",112.0 ± 22.5 %
same,Tail flick latency(s) at hour (h),"[1]; 1.0 mg/kg p.o., 1 h",3.17 ± 0.67 s
same,% MPE at hour (h),"[1]; 1.0 mg/kg p.o., 2 h",187.0 ± 11.9 %
same,Tail flick latency(s) at hour (h),"[1]; 1.0 mg/kg p.o., 2 h",5.25 ± 0.25 s
same,% MPE at hour (h),"[1]; 1.0 mg/kg p.o., 3 h",187.0 ± 12.0 %
same,Tail flick latency(s) at hour (h),"[1]; 1.0 mg/kg p.o., 3 h",5.25 ± 0.28 s
same,% MPE at hour (h),"[1]; 1.0 mg/kg p.o., 5 h",38.0 ± 6.1 %
same,Tail flick latency(s) at hour (h),"[1]; 1.0 mg/kg p.o., 5 h",2.17 ± 0.28 s
same,% MPE at hour (h),"[1]; 3.0 mg/kg p.o., 1 h",205.0 ± 32.9 %
same,Tail flick latency(s) at hour (h),"[1]; 3.0 mg/kg p.o., 1 h",5.17 ± 0.73 s
same,% MPE at hour (h),"[1]; 3.0 mg/kg p.o., 2 h",250.0 ± 21.9 %
same,Tail flick latency(s) at hour (h),"[1]; 3.0 mg/kg p.o., 2 h",6.33 ± 0.33 s
same,% MPE at hour (h),"[1]; 3.0 mg/kg p.o., 3 h",248.0 ± 20.4 %
same,Tail flick latency(s) at hour (h),"[1]; 3.0 mg/kg p.o., 3 h",6.25 ± 0.21 s
same,% MPE at hour (h),"[1]; 3.0 mg/kg p.o., 5 h",70.0 ± 9.5 %
same,Tail flick latency(s) at hour (h),"[1]; 3.0 mg/kg p.o., 5 h",5.33 ± 0.85 s
same,tail flick latency to radiant heat (dose dependence),"[1]; 0.1, 0.3, 1 and 3 mg/kg, 1, 2, 3 and 5 hours",non dose dependant reduction in tail flick latency
same,percentage of maximum protection (significance),[1]; all time intervals and all dose levels,statistically significant at all time intervals and at all dose levels
same,% protection,[2]; 0.03 mg/kg p.o.,28%
same,No. of writhes,[2]; 0.03 mg/kg p.o.,23.17 ± 3.38
same,% protection,[2]; 0.1 mg/kg p.o.,39%
same,No. of writhes,[2]; 0.1 mg/kg p.o.,19.67 ± 2.73
same,No. of writhes,[2]; 0.3 mg/kg p.o.,15.50 ± 1.88
same,% protection,[2]; 1.0 mg/kg p.o.,75%
same,No. of writhes,[2]; 1.0 mg/kg p.o.,8.00 ± 1.15
same,reduction in number of writhes (dose dependence),"[2]; doses 0.03, 0.1, 0.3 and 1 ml/kg, 1% acetic acid",dose dependant reduction in number of writhes
same,reduction in number of writhing (significance),"[2]; doses 0.1, 0.3 and 1 mg/kg",statistically significant reduction in number of writhing
same,"Time to reach peak concentration (tmax), mean",[3]; after 100 mg,2.50 h
same,"Time to reach peak concentration (tmax), mean",[3]; after 200 mg dose,3.17 h
same,Percentage of anti-inflammatory activity at hour (h),"[4]; 1 mg/kg p.o., 0.5 h",16%
same,Change in volume (ml) at hour (h),"[4]; 1 mg/kg p.o., 0.5 h post carrageenan",0.148 ± 0.033 mL
same,Percentage of anti-inflammatory activity at hour (h),"[4]; 1 mg/kg p.o., 1 h",−8%
same,Change in volume (ml) at hour (h),"[4]; 1 mg/kg p.o., 1 h post carrageenan",0.186 ± 0.042 mL
same,Percentage of anti-inflammatory activity at hour (h),"[4]; 1 mg/kg p.o., 2 h",−7%
same,Change in volume (ml) at hour (h),"[4]; 1 mg/kg p.o., 2 h post carrageenan",0.312 ± 0.081 mL
same,Percentage of anti-inflammatory activity at hour (h),"[4]; 1 mg/kg p.o., 3 h",20%
same,Change in volume (ml) at hour (h),"[4]; 1 mg/kg p.o., 3 h post carrageenan",0.398 ± 0.092 mL
same,Percentage of anti-inflammatory activity at hour (h),"[4]; 1 mg/kg p.o., 5 h",14%
same,Change in volume (ml) at hour (h),"[4]; 1 mg/kg p.o., 5 h post carrageenan",0.549 ± 0.114 mL
same,Percentage of anti-inflammatory activity at hour (h),"[4]; 3 mg/kg p.o., 0.5 h",22%
same,Change in volume (ml) at hour (h),"[4]; 3 mg/kg p.o., 0.5 h post carrageenan",0.137 ± 0.038 mL
same,Percentage of anti-inflammatory activity at hour (h),"[4]; 3 mg/kg p.o., 1 h",27%
same,Change in volume (ml) at hour (h),"[4]; 3 mg/kg p.o., 1 h post carrageenan",0.126 ± 0.028 mL
same,Percentage of anti-inflammatory activity at hour (h),"[4]; 3 mg/kg p.o., 2 h",33%
same,Change in volume (ml) at hour (h),"[4]; 3 mg/kg p.o., 2 h post carrageenan",0.196 ± 0.056 mL
same,Percentage of anti-inflammatory activity at hour (h),"[4]; 3 mg/kg p.o., 3 h",66* %
same,Change in volume (ml) at hour (h),"[4]; 3 mg/kg p.o., 3 h post carrageenan",0.168 ± 0.11 mL
same,Percentage of anti-inflammatory activity at hour (h),"[4]; 3 mg/kg p.o., 5 h",44%
same,Change in volume (ml) at hour (h),"[4]; 3 mg/kg p.o., 5 h post carrageenan",0.354 ± 0.104 mL
same,Percentage of anti-inflammatory activity at hour (h),"[4]; 10 mg/kg p.o., 0.5 h",33%
same,Change in volume (ml) at hour (h),"[4]; 10 mg/kg p.o., 0.5 h post carrageenan",0.118 ± 0.027 mL
same,Percentage of anti-inflammatory activity at hour (h),"[4]; 10 mg/kg p.o., 1 h",17%
same,Change in volume (ml) at hour (h),"[4]; 10 mg/kg p.o., 1 h post carrageenan",0.143 ± 0.016 mL
same,Percentage of anti-inflammatory activity at hour (h),"[4]; 10 mg/kg p.o., 2 h",62%
same,Change in volume (ml) at hour (h),"[4]; 10 mg/kg p.o., 2 h post carrageenan",0.110 ± 0.018 mL
same,Percentage of anti-inflammatory activity at hour (h),"[4]; 10 mg/kg p.o., 3 h",59* %
same,Change in volume (ml) at hour (h),"[4]; 10 mg/kg p.o., 3 h post carrageenan",0.203 ± 0.032 mL
same,Percentage of anti-inflammatory activity at hour (h),"[4]; 10 mg/kg p.o., 5 h",58** %
same,Change in volume (ml) at hour (h),"[4]; 10 mg/kg p.o., 5 h post carrageenan",0.264 ± 0.035 mL
same,anti-inflammatory activity over time,"[4]; 10 mg/kg, all time intervals",almost consistent anti-inflammatory activity at all time intervals
same,Percentage of anti-inflammatory activity at hour (h),"[4]; 30 mg/kg p.o., 0.5 h",28%
same,Change in volume (ml) at hour (h),"[4]; 30 mg/kg p.o., 0.5 h post carrageenan",0.126 ± 0.027 mL
same,Percentage of anti-inflammatory activity at hour (h),"[4]; 30 mg/kg p.o., 1 h",−12%
same,Change in volume (ml) at hour (h),"[4]; 30 mg/kg p.o., 1 h post carrageenan",0.193 ± 0.024 mL
same,Percentage of anti-inflammatory activity at hour (h),"[4]; 30 mg/kg p.o., 2 h",27%
same,Change in volume (ml) at hour (h),"[4]; 30 mg/kg p.o., 2 h post carrageenan",0.214 ± 0.028 mL
same,Percentage of anti-inflammatory activity at hour (h),"[4]; 30 mg/kg p.o., 3 h",38%
same,Change in volume (ml) at hour (h),"[4]; 30 mg/kg p.o., 3 h post carrageenan",0.307 ± 0.020 mL
same,Percentage of anti-inflammatory activity at hour (h),"[4]; 30 mg/kg p.o., 5 h",30%
same,Change in volume (ml) at hour (h),"[4]; 30 mg/kg p.o., 5 h post carrageenan",0.443 ± 0.035 mL
same,degree of anti-inflammatory activity,"[4]; 30 mg/kg p.o., from 2-5 hour",around 30%
same,reduction in paw volume (dose dependence),"[4]; 1, 3 and 10 mg/kg, p.o., from 2 to 5 hour",dose dependant reduction in paw volume
same,reduction in paw volume compared to control (significance),"[4]; 3 and 10 mg/kg at 3 hours and 10 mg/kg at 5 hours, p<0.05",statistically significant reduction in paw volume
